From the NIST ThermoML archive (doi:10.1016/j.jct.2016.03.008)

Experiment: mn = molality of the nth substance listed, in mol/kg
Settings: 101 kPa, Liquid; for viscosity: Capillary tube (Ostwald / Ubbelohde) method; for mass density: Vibrating tube method

C[N+](C)(C)CC(=O)O.[Cl-] [betaine hydrochloride] + O
Settings | mass density, 298.15 K [kg/m3] | mass density, 308.15 K [kg/m3] | mass density, 318.15 K [kg/m3] | viscosity, 298.15 K [mPa·s] | viscosity, 308.15 K [mPa·s] | viscosity, 318.15 K [mPa·s]
m1 = 0.006 | 997.26 | 994.25 | 990.47 | 0.8929 | 0.7208 | 0.598
m1 = 0.0134 | 997.52 | 994.51 | 990.73 | 0.8965 | 0.7244 | 0.6005
m1 = 0.0267 | 997.98 | 994.97 | 991.19 | 0.9009 | 0.7288 | 0.6054
m1 = 0.0401 | 998.43 | 995.42 | 991.65 | 0.9064 | 0.7331 | 0.6104
m1 = 0.0536 | 998.87 | 995.87 | 992.1 | 0.9124 | 0.7381 | 0.6153
m1 = 0.0671 | 999.31 | 996.31 | 992.54 | 0.9181 | 0.7427 | 0.62

O=c1cc[nH]c(=O)[nH]1 [2,4(1H,3H)-pyrimidinedione] + O
Settings | mass density, m1 = 0.005 [kg/m3] | mass density, m1 = 0.01 [kg/m3] | mass density, m1 = 0.015 [kg/m3] | mass density, m1 = 0.02 [kg/m3] | viscosity, m1 = 0.005 [mPa·s] | viscosity, m1 = 0.01 [mPa·s] | viscosity, m1 = 0.015 [mPa·s] | viscosity, m1 = 0.02 [mPa·s]
298.15 K | 997.23 | 997.44 | 997.63 | 997.82 | 0.8929 | 0.8953 | 0.8977 | 0.9002
308.15 K | 994.25 | 994.44 | 994.63 | 994.82 | 0.722 | 0.7232 | 0.7245 | 0.727
318.15 K | 990.42 | 990.61 | 990.79 | 990.98 | 0.598 | 0.6004 | 0.6017 | 0.6041
